Source: patent publication US20240158446A1, “CYCLIC COMPOUND HAVING SELECTIVE INHIBITORY ACTION ON KRAS OVER HRAS AND NRAS” (CHUGAI SEIYAKU KABUSHIKI KAISHA, priority 2021, published 2024)
pIC50, pKd: −log10 of the molar value. Read-outs that look alike come from different tables or passages of the source.

Experiments:
[1] = target: GDP-bound KRAS wild-type protein (Homo sapiens, UniProt P01116); experiment: Binding to KRAS by surface plasmon resonance (SPR), Single Cycle Kinetics; conditions: GDP-bound KRAS wild-type protein, read-out: KRAS KD
[2] = target: GDP-bound NRAS wild-type protein (Homo sapiens, UniProt P01111); experiment: Binding to NRAS by surface plasmon resonance (SPR), Single Cycle Kinetics; conditions: for NRAS/KRAS (ratio of KD value for NRAS to KD value for KRAS): GDP-bound NRAS wild-type protein vs GDP-bound KRAS wild-type protein
[3] = target: GDP-bound HRAS wild-type protein (Homo sapiens, UniProt P01112); experiment: Binding to HRAS by surface plasmon resonance (SPR), Single Cycle Kinetics; conditions: for HRAS/KRAS (ratio of KD value for HRAS to KD value for KRAS): GDP-bound HRAS wild-type protein vs GDP-bound KRAS wild-type protein
[4] = system: human lung cancer strain NCI-H441;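 further: cell proliferation inhibition after four days measured by CellTiter-Glo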
[5] = SPR, Single Cycle Kinetics, 1:1 binding model

Sequence of GDP-bound KRAS wild-type protein (P01116 whole entry): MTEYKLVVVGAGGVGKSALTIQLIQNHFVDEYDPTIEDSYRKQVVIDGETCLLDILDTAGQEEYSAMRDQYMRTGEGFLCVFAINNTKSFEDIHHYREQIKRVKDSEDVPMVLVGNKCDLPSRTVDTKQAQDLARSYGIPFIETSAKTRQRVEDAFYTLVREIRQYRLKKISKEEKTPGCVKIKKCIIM
Sequence of GDP-bound HRAS wild-type protein (P01112 whole entry): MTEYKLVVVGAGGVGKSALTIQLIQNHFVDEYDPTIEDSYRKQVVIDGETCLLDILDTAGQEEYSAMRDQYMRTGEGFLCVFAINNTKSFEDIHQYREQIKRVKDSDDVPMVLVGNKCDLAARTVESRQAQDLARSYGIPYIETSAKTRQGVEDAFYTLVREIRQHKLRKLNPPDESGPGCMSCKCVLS
Sequence of GDP-bound NRAS wild-type protein (P01111 whole entry): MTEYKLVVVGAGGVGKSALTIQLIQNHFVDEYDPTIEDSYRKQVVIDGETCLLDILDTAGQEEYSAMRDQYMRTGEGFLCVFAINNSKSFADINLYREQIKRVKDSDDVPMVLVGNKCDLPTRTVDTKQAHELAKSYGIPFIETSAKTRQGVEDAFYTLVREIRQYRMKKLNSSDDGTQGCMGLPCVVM

Row | pKd ([1]; SPR, Single Cycle Kinetics) | pIC50 [4] | pKd [1, 5] | Compound | NRAS/KRAS (ratio of KD value for NRAS to KD value for KRAS) ([2]; SPR) | HRAS/KRAS (ratio of KD value for HRAS to KD value for KRAS) ([3]; SPR) | NRAS/KRAS (ratio of KD value for NRAS to KD value for KRAS) ([2]; SPR, KD ratio class) | HRAS/KRAS (ratio of KD value for HRAS to KD value for KRAS) ([3]; SPR, KD ratio class) | further results
1 | 9.16 | 6.93 | – | CCO[C@@H]1C[C@H]2C(=O)NC3(CCC3)C(=O)N(C)[C@@H](C3CCCC3)C(=O)N(C)[C@H](C(=O)N(C)C)CC(=O)N(C)[C@@H](Cc3ccccc3C#N)C(=O)N[C@@H]([C@@H](C)CC)C(=O)N(C)CC(=O)N(C)[C@H]3CCCCCN(C3=O)[C@@H](Cc3ccc(C(F)(F)F)cc3)C(=O)N(C)CC(=O)N[C@@H](CCc3cc(F)c(C(F)(F)F)c(F)c3)C(=O)N2C1 [PP1171] | B (a compound having 3 or more and less than 10 is denoted as B) | B (a compound having 3 or more and less than 10 is denoted as B) | – | – | –
2 | 9.34 | 6.93 | – | CCOC[C@H]1C(=O)N[C@@H]([C@@H](C)OCC)C(=O)N(C)CC(=O)N(C)[C@H]2C/C=C\CCN(C2=O)[C@@H](Cc2ccc(C)cc2)C(=O)N(C)CC(=O)N[C@@H](CCc2cc(F)c(C(F)(F)F)c(F)c2)C(=O)N2C[C@@H](C)C[C@H]2C(=O)NC2(CC(C)(C)C2)C(=O)N(C)[C@@H](C2CCCC2)C(=O)N(C)[C@H](C(=O)N(C)CC)CC(=O)N1C [PP2422] | A (a compound having 10 or more and less than 20 is denoted as A) | A (a compound having 10 or more and less than 20 is denoted as A) | – | – | –
3 | 9.54 | 7.48 | – | CCCO[C@H](C)[C@@H]1NC(=O)[C@H](CC(C)C)N(C)C(=O)C[C@@H](C(=O)N(C)CC)N(C)C(=O)[C@H](C2CCCC2)N(C)C(=O)C2(CC(C)(C)C2)NC(=O)[C@@H]2C[C@H](C)CN2C(=O)[C@H](CCc2ccc(C(F)(F)F)c(OC)c2)NC(=O)CN(C)C(=O)[C@H](Cc2ccc(C)cc2)N2CC/C=C\C[C@@H](C2=O)N(C)C(=O)CN(C)C1=O [PP2416] | A (a compound having 10 or more and less than 20 is denoted as A) | B (a compound having 3 or more and less than 10 is denoted as B) | – | – | –
4 | – | 7.91 | 9.46 | CCO[C@@H]1C[C@H]2C(=O)NC3(CCC3)C(=O)N(C)[C@@H](C3CCCC3)C(=O)N(C)[C@H](C(=O)N3CCOCC3)CC(=O)N(C)[C@@H](CC(C)C)C(=O)N[C@@H]([C@@H](C)CC)C(=O)N3CC[C@H]3C(=O)N(C)[C@H]3CC[C@@H](C)CN(C3=O)[C@@H](Cc3ccc(C(F)(F)F)cc3)C(=O)N(C)CC(=O)N[C@@H](CCc3cc(F)c(C(F)(F)F)c(F)c3)C(=O)N2C1 [PP1373] | – | – | B (a compound having 3 or more and less than 10 is denoted as B) | B (a compound having 3 or more and less than 10 is denoted as B) | –
5 | 9.17 | 7.66 | – | CCC[C@H]1C(=O)N[C@@H]([C@@H](C)CC)C(=O)N(C)CC(=O)N(C)[C@H]2C/C=C\CCN(C2=O)[C@@H](CC2CCC(F)(F)CC2)C(=O)N(C)CC(=O)N[C@@H](CCc2ccc(C(F)(F)F)c(Cl)c2)C(=O)N2C[C@H](OCC)C[C@H]2C(=O)NC2(CC(C)(C)C2)C(=O)N(C)[C@@H](C(CC)CC)C(=O)N(C)[C@H](C(=O)N(C)C)CC(=O)N1C [PP2498] | A (a compound having 10 or more and less than 20 is denoted as A) | A (a compound having 10 or more and less than 20 is denoted as A) | – | – | –
6 | – | 8.51 | – | CCC[C@H]1C(=O)N[C@@H]([C@@H](C)CC)C(=O)N(C)CC(=O)N(C)[C@H]2C/C=C\CCN(C2=O)[C@@H](Cc2ccc(C(F)(F)F)cc2)C(=O)N(C)CC(=O)N[C@@H](CCc2ccc(C(F)(F)F)c(OC)c2)C(=O)N2C[C@H](OCC)C[C@H]2C(=O)NC2(CC(C)(C)C2)C(=O)N(C)[C@@H](CC(C)(C)C)C(=O)N(C)[C@H](C(=O)N(C)C)CC(=O)N1C [PP2734] | – | – | – | – | pKd ([1]; SPR Single Cycle Kinetics, 1:1 binding model): 10.00; NRAS/KRAS (ratio of KD value with respect to GDP-bound NRAS wild-type protein to KD value with respect to KRAS) ([2]; SPR KD ratio NRAS/KRAS, class symbols): A (a compound having 10 or more and less than 20 is denoted as A); HRAS/KRAS (ratio of KD value with respect to GDP-bound HRAS wild-type protein to KD value with respect to KRAS) ([3]; SPR KD ratio HRAS/KRAS, class symbols): B (a compound having 3 or more and less than 10 is denoted as B)
7 | – | 7.80 | 10.17 | CC[C@H](C)[C@@H]1NC(=O)[C@H](CC)N(C)C(=O)C[C@@H](C(=O)N(C)C)N(C)C(=O)[C@H](C2CCCC2)N(C)C(=O)C2(CCCC2)NC(=O)[C@@H]2CCCN2C(=O)[C@H](CCc2cc(F)c(C(F)(F)F)c(F)c2)NC(=O)CN(C)C(=O)[C@H](Cc2ccc(C(F)(F)F)cc2)N2C[C@H](C)CC[C@@H](C2=O)N(C)C(=O)CN(C)C1=O [PP1382] | – | – | B (a compound having 3 or more and less than 10 is denoted as B) | B (a compound having 3 or more and less than 10 is denoted as B) | –
8 | – | 6.33 | 8.07 | CC[C@H](C)[C@@H]1NC(=O)[C@H](CC2CC2)N(C)C(=O)C[C@@H](C)N(C)C(=O)[C@H](C2CCCC2)N(C)C(=O)C2(CCC2)NC(=O)[C@H](CC(F)F)N(C)C(=O)[C@H](CCc2cc(F)c(C(F)(F)F)c(F)c2)NC(=O)CN(C)C(=O)[C@H](Cc2ccc(C(F)(F)F)cc2)N2CC/C=C\C[C@@H](C2=O)N(C)C(=O)CN(C)C1=O [PP1405] | – | – | A (a compound having 10 or more and less than 20 is denoted as A) | A (a compound having 10 or more and less than 20 is denoted as A) | –
9 | – | 7.65 | 9.24 | CCO[C@@H]1C[C@H]2C(=O)NC3(CCC3)C(=O)N(C)[C@@H](C(CC)CC)C(=O)N(C)[C@H](C(=O)N(C)C)CC(=O)N(C)[C@@H](CC3CCCC3)C(=O)N[C@@H]([C@@H](C)CC)C(=O)N(C)CC(=O)N(C)[C@H]3C/C=C\CCN(C3=O)[C@@H](Cc3ccc(C(F)(F)F)cc3)C(=O)N(C)CC(=O)N[C@@H](CCc3ccc(Cl)c(Cl)c3)C(=O)N2C1 [PP1220] | – | – | AA (a compound having 20 or more is denoted as AA) | A (a compound having 10 or more and less than 20 is denoted as A) | –
10 | – | 8.85 | 10.33 | CCCC[C@H]1C(=O)N[C@@H]([C@@H](C)CC)C(=O)N(C)CC(=O)N(C)[C@H]2C/C=C\CCN(C2=O)[C@@H](Cc2ccc(C(F)(F)F)cc2)C(=O)N(C)CC(=O)N[C@@H](CCc2cc(F)c(C(F)(F)F)c(F)c2)C(=O)N2C[C@H](OCC)C[C@H]2C(=O)NC2(CCC2)C(=O)N(C)[C@@H](C2CCCC2)C(=O)N(C)[C@H](C(=O)N(C)C)CC(=O)N1C [PP1392, (2S,8S,12R,14S,20S,23S,27S,30S,36S,38Z)-27-butyl-20-cyclopentyl-8-[2-[3,5-difluoro-4-(trifluoromethyl)phenyl]ethyl]-12-ethoxy-N,N,4,19,22,26,32,35-octamethyl-30-[(1S)-1-methylpropyl]-3,6,9,15,18,21,25,28,31,34,42-undecaoxo-2-[[4-(trifluoromethyl)phenyl]methyl]spiro[1,4,7,10,16,19,22,26,29,32,35-undecazatricyclo[34.5.1.0^10,14]dotetracont-38-ene-17,1′-cyclobutane]-23-carboxamide] | – | – | A (a compound having 10 or more and less than 20 is denoted as A) | A (a compound having 10 or more and less than 20 is denoted as A) | –
11 | 9.66 | – | – | CC[C@H](C)[C@@H]1NC(=O)[C@@H]2CCCc3ccc(cc3)C[C@@H](C(=O)N(C)CC(=O)N[C@@H](CCc3ccc(C(F)(F)F)c(OC)c3)C(=O)N3CC4(CC4)C[C@H]3C(=O)NC3(CC(C)(C)C3)C(=O)N(C)[C@@H](C3CCCC3)C(=O)N(C)[C@H](C(=O)N(C)CC)CC(=O)N2C)N2CC/C=C\C[C@@H](C2=O)N(C)C(=O)CN(C)C1=O [PP3087] | A (a compound having 10 or more and less than 20 is denoted as A) | B (a compound having 3 or more and less than 10 is denoted as B) | – | – | ratio of the KD value with respect to GDP-bound NRAS wild-type protein to the KD value with respect to KRAS ([2]; SPR, KD(NRAS)/KD(KRAS)): A (a compound having 10 or more and less than 20 is denoted as A); ratio of the KD value with respect to GDP-bound HRAS wild-type protein to the KD value with respect to KRAS ([3]; SPR, KD(HRAS)/KD(KRAS)): B (a compound having 3 or more and less than 10 is denoted as B); pIC50 ([4]; read-out: NCI-H441 cell proliferation inhibitory activity, 50% proliferation inhibitory concentration (IC50 value), NCI-H441, four days, CellTiter-Glo): 8.16
12 | 8.85 | 7.57 | – | CCC(CC)[C@H]1C(=O)N(C)[C@H](C(=O)N(C)C)CC(=O)N(C)[C@@H](COC)C(=O)N[C@@H]([C@@H](C)CC)C(=O)N(C)CC(=O)N(C)[C@H]2C/C=C\CCN(C2=O)[C@@H](CC2CCC(F)(F)CC2)C(=O)N(C)CC(=O)N[C@@H](CCc2cc(F)c(C(F)(F)F)c(F)c2)C(=O)N2C[C@@H](C)C[C@H]2C(=O)NC2(CC(C)(C)C2)C(=O)N1C [PP2448] | A (a compound having 10 or more and less than 20 is denoted as A) | A (a compound having 10 or more and less than 20 is denoted as A) | – | – | –

Row | Compound | pKd ([1]; SPR, Single Cycle Kinetics) | pIC50 [4] | pKd [1, 5] | NRAS/KRAS (ratio of KD value for NRAS to KD value for KRAS) ([2]; SPR) | HRAS/KRAS (ratio of KD value for HRAS to KD value for KRAS) ([3]; SPR) | NRAS/KRAS (ratio of KD value for NRAS to KD value for KRAS) ([2]; SPR, KD ratio class) | HRAS/KRAS (ratio of KD value for HRAS to KD value for KRAS) ([3]; SPR, KD ratio class) | further results
13 | CCO[C@@H]1C[C@H]2C(=O)NC3(CCC3)C(=O)N(C)[C@@H](C3CCCC3)C(=O)N(C)[C@H](C(=O)N3CCCCC3)CC(=O)N(C)[C@@H](C)C(=O)N[C@@H]([C@@H](C)CC)C(=O)N(C)CC(=O)N(C)[C@H]3C/C=C\CCN(C3=O)[C@@H](Cc3ccc(C(F)(F)F)cc3)C(=O)N(C)CC(=O)N[C@@H](CCc3cc(F)c(C(F)(F)F)c(F)c3)C(=O)N2C1 [PP1292] | – | 7.61 | 9.80 | – | – | A (a compound having 10 or more and less than 20 is denoted as A) | A (a compound having 10 or more and less than 20 is denoted as A) | –
